Laboratory results: ChEMBL document CHEMBL3425494, “Design, synthesis, and antitumor evaluation of novel histone deacetylase inhibitors equipped with a phenylsulfonylfuroxan module as a nitric oxide donor” (J Med Chem, 2015)
pIC50: −log10 of the molar value.

Molecular target: T1, Protein deacetylase HDAC6 (Homo sapiens, UniProt Q9UBN7)
T1 sequence (Q9UBN7 whole entry): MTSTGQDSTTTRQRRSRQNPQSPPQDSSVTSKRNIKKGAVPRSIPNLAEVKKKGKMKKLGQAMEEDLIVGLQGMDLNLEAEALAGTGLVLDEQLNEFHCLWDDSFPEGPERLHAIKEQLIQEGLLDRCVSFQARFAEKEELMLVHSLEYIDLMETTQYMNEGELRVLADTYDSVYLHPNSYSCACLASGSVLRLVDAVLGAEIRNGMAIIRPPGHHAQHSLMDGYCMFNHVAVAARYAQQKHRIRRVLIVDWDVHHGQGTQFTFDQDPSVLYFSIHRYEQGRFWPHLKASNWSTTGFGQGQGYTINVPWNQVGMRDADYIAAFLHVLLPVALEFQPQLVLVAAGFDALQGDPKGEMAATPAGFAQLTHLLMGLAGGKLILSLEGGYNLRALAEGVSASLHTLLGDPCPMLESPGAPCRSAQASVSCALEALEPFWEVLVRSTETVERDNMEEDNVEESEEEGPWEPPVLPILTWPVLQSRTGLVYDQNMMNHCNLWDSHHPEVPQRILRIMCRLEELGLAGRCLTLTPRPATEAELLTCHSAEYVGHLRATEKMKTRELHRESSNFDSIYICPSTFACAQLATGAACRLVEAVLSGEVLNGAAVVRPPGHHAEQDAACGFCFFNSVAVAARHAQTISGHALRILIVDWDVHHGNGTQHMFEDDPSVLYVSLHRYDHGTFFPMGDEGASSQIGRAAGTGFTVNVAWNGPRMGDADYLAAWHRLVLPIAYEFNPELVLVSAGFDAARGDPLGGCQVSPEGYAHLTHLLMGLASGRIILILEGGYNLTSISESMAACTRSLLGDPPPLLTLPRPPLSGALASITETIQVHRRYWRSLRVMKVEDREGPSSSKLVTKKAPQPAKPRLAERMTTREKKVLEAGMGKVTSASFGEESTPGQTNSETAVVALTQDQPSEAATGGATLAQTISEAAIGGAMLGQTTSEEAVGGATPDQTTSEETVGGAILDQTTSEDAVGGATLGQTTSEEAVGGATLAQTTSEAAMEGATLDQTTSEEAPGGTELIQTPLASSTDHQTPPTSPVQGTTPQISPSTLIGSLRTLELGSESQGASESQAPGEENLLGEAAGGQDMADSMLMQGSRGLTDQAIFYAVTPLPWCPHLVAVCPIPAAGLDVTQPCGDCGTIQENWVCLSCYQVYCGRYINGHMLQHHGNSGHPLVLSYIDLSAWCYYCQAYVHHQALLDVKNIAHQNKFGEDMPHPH
Test: Inhibition of full length human recombinant HDAC6 expressed in baculovirus infected insect S9 cells using Ac-Leu-GlyLys(Ac)-AMC as substrate after 30 mins by fluorescence assay

pIC50: 8.13
SMILES: O=C(CCCCCOc1no[n+]([O-])c1S(=O)(=O)c1ccccc1)NO
